Measurements taken from ChEMBL document CHEMBL2046380, “Synthesis and structure-activity relationship of disubstituted benzamides as a novel class of antimalarial agents” (Bioorg Med Chem Lett, 2012).

Legend:
Plasmodium falciparum [1] = experiment: Antimalarial activity against […] incubated for 72 hrs by DNA staining based MARK1 growth inhibition assay; type: functional, organism-based
Plasmodium falciparum [2] = experiment: Antimalarial activity against chloroquine-sensitive Plasmodium falciparum 3D7 incubated for 72 hrs by DNA staining based MAR3D7 growth inhibition assay; type: functional, organism-based; conditions: 3D7, 72 h
HepG2 = experiment: Cytotoxicity against human HepG2 cells after 72 hrs by […] CellTiterGlo reagent assay; type: cell-based; conditions: HepG2, 72 h
Raji = experiment: Cytotoxicity against human Raji cells after 72 hrs by […] CellTiterGlo reagent assay; type: cell-based
BJ = experiment: Cytotoxicity against human BJ cells after 72 hrs by […] CellTiterGlo reagent assay; type: cell-based
HEK293 = experiment: Cytotoxicity against human HEK293 cells after 72 hrs by […] CellTiterGlo reagent assay; type: cell-based; conditions: HEK293, 72 h

Row | Structure (SMILES) | EC50 (Plasmodium falciparum [1]) [µM] | EC50 (Plasmodium falciparum [2]) [µM] | EC50 (HepG2) [µM] | EC50 (Raji) [µM] | EC50 (BJ) [µM] | EC50 (HEK293) [µM]
1 | CCOC(=O)CCCCCOc1cccc(CN(C(=O)c2ccc(-c3cccnc3)cc2)C(C)C)c1 | > 15 | > 15 | > 26 | > 26 | > 26 | > 26
2 | COc1cc(OC)cc(-c2ccc(C(=O)N(Cc3cccc(OCCCCCC(=O)O)c3)C(C)C)cc2)c1 | > 15 | > 15 | > 26 | > 26 | > 26 | > 26
3 | CCOC(=O)CCCCCOc1cccc(C=O)c1 | > 15 | > 15 | > 26 | > 26 | > 26 | > 26
4 | CCOC(=O)CCCCCOc1cccc(CN(C(=O)c2ccccc2)C(C)C)c1 | > 12.5 | > 15 | > 26 | > 26 | > 26 | > 26
5 | CCOC(=O)CCCCCOc1ccccc1CN(C(=O)c1ccc(-c2ccc3c(c2)OCO3)cc1)C(C)C | > 15 | > 15 | > 26 | > 26 | > 26 | > 26
6 | CC(C)N(Cc1cccc(OCCCCCC(=O)O)c1)C(=O)c1ccc(-c2cccc3ccccc23)cc1 | > 15 | > 15 | > 26 | > 26 |  | > 26
7 | CC(C)N(Cc1cccc(OCCCCCC(=O)O)c1)C(=O)c1ccc(-c2ccc3c(c2)OCCO3)cc1 | > 12.1 | > 12.1 | > 21.9 | > 21.9 | > 21.9 | > 21.9
8 | CCOC(=O)CCCCCOc1cccc(CN(C(=O)c2ccc(-c3ccc4ccccc4c3)cc2)C(C)C)c1 | > 15 | > 15 | > 26 | > 26 | > 26 | > 26
9 | CC(C)N(C(=O)c1ccc(-c2ccc3c(c2)OCO3)cc1)[C@H](C)c1ccccc1 | > 15 | > 15 | > 26 | > 26 | > 26 | > 26
10 | COc1ccc(-c2cc(C(=O)O)c3ccccc3n2)cc1OC | > 15 | > 15 | > 26 | > 26 | > 26 | > 26
11 | COc1ccc(CCNC(=O)CCCCC(C)=O)cc1OC | > 7.51 | > 7.51 | > 13 | > 13 | > 13 | > 13
12 | C#CCCC(=O)NCCc1ccc(OC)c(OC)c1 | > 7.51 | > 7.51 | > 13 | > 13 | > 13 | > 13
13 | CCOC(=O)CCCCCOc1cccc(CN(C(=O)c2ccc(-c3ccc4c(c3)OCO4)cc2)C(C)C)c1 | > 12.5 | > 12.5 | > 22.6 | > 22.6 | > 22.6 | > 22.6
14 | CCOC(=O)CCCCCOc1cccc(CNC(C)C)c1 | > 15 | > 15 | > 26 | > 26 | > 26 | > 26
15 | COc1ccc(F)c(-c2ccc(C(=O)N(Cc3cccc(OCCCCCC(=O)O)c3)C(C)C)cc2)c1 | > 15 | > 15 | > 26 | > 26 | > 26 | > 26
16 | CC(C)N(Cc1cccc(OCCCCCC(=O)O)c1)C(=O)c1ccc(-c2cccc(Oc3ccccc3)c2)cc1 | > 10.4 | > 10.4 | > 18.8 | > 18.8 | > 18.8 | > 18.8
17 | CC(C)N(Cc1cccc(OCCCCCC(=O)O)c1)C(=O)c1ccc(-c2cccc(Cl)c2)cc1 | > 12.1 | > 12.1 | > 21.9 | > 21.9 | > 21.9 | > 21.9
18 | CC(C)Oc1cccc(-c2ccc(C(=O)N(Cc3cccc(OCCCCCC(=O)O)c3)C(C)C)cc2)c1 | > 15 | > 15 | > 26 | > 26 | > 26 | > 26
19 | CC(=O)Nc1cccc(-c2ccc(C(=O)N(Cc3cccc(OCCCCCC(=O)O)c3)C(C)C)cc2)c1 | > 15 | > 15 | > 26 | > 26 | > 26 | > 26
20 | CCCN(Cc1ccc(OCCCCCC(=O)OCC)cc1)C(=O)c1ccc(Br)cc1 | > 15 | > 15 | > 26 | > 26 | > 26 | > 26
21 | CCOC(=O)CC(=O)NCC(OCC)(OCC)c1ccc2c(c1)OCO2 | > 7.51 | > 7.51 | > 13 | > 13 | > 13 | > 13
